Measured values taken from the supplement of paper PMC13380429.

What was measured:
Conditions in all cases: 72 h
Vero E6 [1] = experiment: drug sensitivity score (DSS) for viability; higher = more toxic; extreme values may be limits of the assay
U2OS [2] = experiment: as above
HepG2 [3] = experiment: as above
Caco-2 [4] = experiment: as above
Vero E6 [5] = experiment: cell viability relative to DMSO; higher = less toxic
U2OS [6] = experiment: as above
HepG2 [7] = experiment: as above
Caco-2 [8] = experiment: as above
Vero E6 [9] = experiment: relative viability EC50 (midpoint between 100% and the lowest measured viability); higher = less toxic
U2OS [10] = experiment: as above
HepG2 [11] = experiment: as above
Caco-2 [12] = experiment: as above
Calu-3 [13] = experiment: drug sensitivity score (DSS) for viability; higher = more toxic; extreme values may be limits of the assay
Calu-3 [14] = experiment: cell viability relative to DMSO; higher = less toxic

Structure (SMILES)	drug sensitivity score (Vero E6 [1])	drug sensitivity score (U2OS [2])	drug sensitivity score (HepG2 [3])	drug sensitivity score (Caco-2 [4])	cell viability (Vero E6 [5]; 1 nM) [%]	cell viability (Vero E6 [5]; 10 nM) [%]	cell viability (Vero E6 [5]; 100 nM) [%]	cell viability (Vero E6 [5]; 1000 nM) [%]	cell viability (Vero E6 [5]; 10000 nM) [%]	cell viability (U2OS [6]; 1 nM) [%]	cell viability (U2OS [6]; 10 nM) [%]	cell viability (U2OS [6]; 100 nM) [%]	cell viability (U2OS [6]; 1000 nM) [%]	cell viability (U2OS [6]; 10000 nM) [%]	cell viability (HepG2 [7]; 1 nM) [%]	cell viability (HepG2 [7]; 10 nM) [%]	cell viability (HepG2 [7]; 100 nM) [%]	cell viability (HepG2 [7]; 1000 nM) [%]	cell viability (HepG2 [7]; 10000 nM) [%]	cell viability (Caco-2 [8]; 1 nM) [%]	cell viability (Caco-2 [8]; 10 nM) [%]	cell viability (Caco-2 [8]; 100 nM) [%]	cell viability (Caco-2 [8]; 1000 nM) [%]	cell viability (Caco-2 [8]; 10000 nM) [%]	relative viability EC50 (Vero E6 [9]) [µM]	relative viability EC50 (U2OS [10]) [µM]	relative viability EC50 (HepG2 [11]) [µM]	relative viability EC50 (Caco-2 [12]) [µM]	drug sensitivity score (Calu-3 [13])	cell viability (Calu-3 [14]; 1 nM) [%]	cell viability (Calu-3 [14]; 10 nM) [%]	cell viability (Calu-3 [14]; 100 nM) [%]	cell viability (Calu-3 [14]; 1000 nM) [%]	cell viability (Calu-3 [14]; 10000 nM) [%]
CC[C@@](C)(Nc1ccnc(-c2c[nH]c3ncccc23)n1)C(=O)NCC(F)(F)F [decernotinib]	0	0	0	0	100	100	105	99.1	107	96.5	101	94.2	98.3	98	94.2	101	96.6	107	109	97.4	97.3	99	95.4	109	> 10	> 10	> 10	> 10	–	–	–	–	–	–
COc1ccc2nc3ccc(Cl)cc3c(SCCCN)c2c1	0	0	0	0	99.7	93.7	93.4	93.2	109	98.8	101	98.4	104	98.8	98.6	106	98.8	106	101	94.9	99.7	93.9	93.5	99.2	> 10	> 10	> 10	> 10	–	–	–	–	–	–
C[C@@H](O)[C@H]1C(=O)N2C(C(=O)[O-])=C(SC3Cn4cnc[n+]4C3)[C@H](C)[C@H]12 (stereo partly drawn) [biapenem]	0	0	0	0	98.1	100	94.7	103	99.8	98.6	104	96.3	97.1	100	97.1	98	93.3	90.7	95.2	86.6	104	96.3	93.3	97.3	> 10	> 10	> 10	> 10	–	–	–	–	–	–
CC(C)CCC[C@@H](C)[C@H]1CC[C@H]2[C@@H]3CC=C4C[C@@H](O)CC[C@]4(C)[C@H]3CC[C@]12C [cholesterol]	0	0	0	0	97.1	98.2	92.2	97.6	107	102	93.3	98.2	94	100	92.6	97.4	91.6	106	104	89.4	92.1	102	90.4	98.9	> 10	> 10	> 10	> 10	–	–	–	–	–	–
CN(C)C(=O)c1cc2cnc(Nc3ccc(N4CCNCC4)cn3)nc2n1C1CCCC1 [ribociclib]	0.6	0	4.5	0	95.5	98.8	98	94.4	84	92.8	96.9	92.7	98.4	90.4	95.1	101	87.5	78	71.8	92.1	95.9	96.1	95	90.3	> 10	> 10	–	> 10	1.8	99.7	90.3	94	95.3	73.1
Cc1nc2ccccn2c(=O)c1CCN1CCC(C(=O)c2ccc(F)cc2)CC1 [pirenperone]	0	0	0	0	92.6	101	95.6	100	97.2	106	106	103	99.2	103	110	113	108	99.2	90.2	103	101	99.5	90.6	106	> 10	> 10	> 10	> 10	–	–	–	–	–	–
